Where two headings read alike, the source gives them in different places. A value given as a limit tells only on which side of the number the result lay.

Data set [1] deals with LS174T colon cancer cells. Put plainly: LS174T cell proliferation assay. In kind it is cell-based. Also noted: effects on LS174T colon cancer cell proliferation (Table 3): unit not given here. To be noted: for inhibition at 1 µM / inhibition at 10 µM / inhibition at 0.1 µM: Homo sapiens, LS174T. The protocol:
Cell proliferation assay. LS174T cells were grown in RPMI medium (Mediatech) supplemented with 5% fetal bovine serum and 1% penicillin/streptomycin. For cell proliferation assays, 3×10^4 cells/well growing in 12-well plates were treated with DMSO or inhibitors. The cell numbers and viability were analyzed by Vi-Cell Cell Viability Analyzer after 4 days. The IC50 values were calculated with GraphPad Prim 5.

Where [2] appears, read: read-out: inhibition of LS174T colon cancer cell proliferation.
Where [3] appears, read: read-out: inhibition of cell proliferation (%) of colon cancer LS174T cells.
Setting [4] is: Table 2, 1 μM, read-out: inhibition of cell proliferation (%) of colon cancer LS174T cells.
[5] abbreviates: Table 2, 10 μM, read-out: inhibition of cell proliferation (%) of colon cancer LS174T cells.
The mark [6] stands for this setting: 1 μM, read-out: inhibition of LS174T colon cancer cell proliferation.
Setting [7] is: Table 2, 100 nM, read-out: inhibition of cell proliferation (%) of colon cancer LS174T cells.
Setting [8] is: Table 1, 1 μM, read-out: inhibition of proliferation (%) of colon cancer LS174T cells.
[9] abbreviates: Table 1, 10 μM, read-out: inhibition of proliferation (%) of colon cancer LS174T cells.

What is called melting point is the temperature of the solid-liquid transition. The molecule `Fc1cccc(F)c1C#Cc1ccc2cn[nH]c2c1` [Compound 5i, 6-((2,6-Difluorophenyl)ethynyl)-1H-indazole] registered a melting point of 192 to 194 °C. In addition, the inhibition at 1 µM in data set [1] (setting [2]) was above 75%. Further, in data set [1] (setting [3]), the inhibition at 1 µM was 81.5 ± 2.9% and the inhibition at 10 µM came out at 97 ± 1.1%.
In turn, `Fc1cccc(F)c1C#Cc1ccc2[nH]ccc2c1` [Compound 5e, 5-((2,6-Difluorophenyl)ethynyl)-1H-indole] showed a melting point of 131 to 133 °C. The inhibition at 1 µM in data set [1] (setting [4]) was 52.9 ± 5.9%. In data set [1] (setting [5]), the inhibition at 10 µM was determined as 91.5 ± 3.5%.
In turn, `Fc1cccc(F)c1C#Cc1cccc2cnccc12` [Compound 5ii, 5-((2,6-Difluorophenyl)ethynyl)isoquinoline] showed a melting point of 115 to 117 °C. The inhibition at 1 µM in data set [1] (setting [4]) stood at 64.2 ± 6.1%. The inhibition at 10 µM in data set [1] (setting [5]) was determined as 93.6 ± 0.5%.
For `Fc1cccc(F)c1C#Cc1nccc2ccccc12` [Compound 5gg, 1-((2,6-Difluorophenyl)ethynyl)isoquinoline] the same measures were 120 to 122 °C, 35.4 ± 15% and 96.7 ± 0.2%.
`CN(C)c1ccc(C#Cc2c(F)cccc2F)cn1` [Compound 5b, 5-((2,6-Difluorophenyl)ethynyl)-N,N-dimethylpyridin-2-amine] showed a melting point of 110 to 112 °C. Besides, the inhibition at 1 µM in data set [1] (setting [6]) is above 75%. In addition, the inhibition at 0.1 µM in data set [1] (setting [7]) was 0%. The inhibition at 1 µM in data set [1] (setting [4]) was 77.9 ± 7%. Besides, in data set [1] (setting [5]), the inhibition at 10 µM is 83.6 ± 7.8%.
`Nc1ncc(C#Cc2c(F)cccc2F)c2ccccc12` [Compound 5mm, 4-((2,6-Difluorophenyl)ethynyl)isoquinolin-1-amine] yielded a melting point of 200 to 201 °C. Besides, in data set [1] (setting [3]), the inhibition at 0.1 µM came out at 35.5 ± 1.7%, the inhibition at 1 µM is 86.2 ± 1.6% and the inhibition at 10 µM is 93.1 ± 1.6%.
`Fc1cccc(F)c1C#Cc1ccc2c(Cl)ccnc2c1` [Compound 5bb, 4-Chloro-7-((2,6-difluorophenyl)ethynyl)quinoline] displayed a melting point of 148 to 150 °C. Moreover, in data set [1] (setting [4]), the inhibition at 1 µM is 23.1 ± 8.3%. Further, the inhibition at 10 µM in data set [1] (setting [5]) is 70.8 ± 4.8%.
Turning to `Fc1cncc(F)c1C#Cc1ccccc1` [Compound 7a, 3,5-Difluoro-4-(phenylethynyl)pyridine], the melting point is 52 to 54 °C. Moreover, in data set [1] (30 nM), the “effects on LS174T colon cancer cell proliferation (Table 3)” value (“effects” below) worked out at 5.3. In data set [1] (100 nM), the “effects” value came out at 24.7. For the same molecule, the “effects” value in data set [1] (300 nM) stood at 12.2.
In turn, `Fc1cccc(F)c1C#Cc1ccc2cccnc2c1` [Compound 5x, 7-((2,6-Difluorophenyl)ethynyl)quinoline] had a melting point of 123 to 125 °C. For the same molecule, in data set [1] (setting [2]), the inhibition at 1 µM is above 75%. For the same molecule, in data set [1] (setting [3]), the inhibition at 0.1 µM stood at 2.9 ± 14%, the inhibition at 1 µM is 90.7 ± 0.6% and the inhibition at 10 µM came out at 99.4 ± 0.3%.
As for `Cn1ncc2cc(C#Cc3c(F)cccc3F)ccc21` [Compound 5j, 5-((2,6-difluorophenyl)ethynyl)-1-methyl-1H-indazole], the melting point was in the range of 107 to 109 °C. In data set [1] (setting [7]), the inhibition at 0.1 µM amounted to 0%. In data set [1] (setting [4]), the inhibition at 1 µM amounted to 58.4 ± 9.6%. The inhibition at 10 µM in data set [1] (setting [5]) was found to be 94.6 ± 3.5%.
`Fc1cccc(F)c1C#Cc1ccc2cncnc2c1` [Compound 5rr, 7-((2,6-Difluorophenyl)ethynyl)quinazoline] returned a melting point of 166 to 168 °C. Moreover, the inhibition at 1 µM in data set [1] (setting [4]) was determined as 33.8 ± 4.8%. Further, in data set [1] (setting [5]), the inhibition at 10 µM turned out to be 96.3 ± 0.8%.
For `Fc1ccc2cc(C#Cc3c(F)cccc3F)cnc2c1` [Compound 5s, 3-((2,6-Difluorophenyl)ethynyl)-7-fluoroquinoline], the melting point lay within 142 to 143 °C. Further, in data set [1] (setting [3]), the inhibition at 0.1 µM came to 14.8 ± 5.5%, the inhibition at 1 µM was found to be 69.4 ± 4.5% and the inhibition at 10 µM came out at 95.1 ± 1.6%.
In turn, `Fc1cccc(F)c1C#Cc1ccc(-n2cccc2)nc1` [Compound 5c, 5-((2,6-Difluorophenyl)ethynyl)-2-(1H-pyrrol-1-yl)pyridine] returned a melting point of 121 to 123 °C. The inhibition at 1 µM in data set [1] (setting [2]) was above 75%. In data set [1] (setting [3]), the inhibition at 0.1 µM is 0%, the inhibition at 1 µM is 80.5 ± 6.6% and the inhibition at 10 µM was found to be 95.3 ± 0.8%.
The molecule `Fc1cccc(F)c1C#Cc1ccc2[nH]ncc2c1` [Compound 5h, 5-((2,6-Difluorophenyl)ethynyl)-1H-indazole] yielded a melting point of 193 to 195 °C. In data set [1] (setting [3]), the inhibition at 1 µM came out at 17.6 ± 7.9% and the inhibition at 10 µM amounted to 82.9 ± 9.8%.
`Fc1cccc(F)c1C#Cc1cnc2ccccc2c1` [Compound 5n, 3-((2,6-Difluorophenyl)ethynyl)quinoline] came in with a melting point of 115 to 117 °C. Further, in data set [1] (setting [3]), the inhibition at 0.1 µM came out at 0%, the inhibition at 1 µM came out at 41.7 ± 6.5% and the inhibition at 10 µM was 90.4 ± 1%.
On to `Fc1cccc(F)c1C#Cc1ccc2nc(Cl)ccc2c1` [Compound 5z, 2-Chloro-6-((2,6-difluorophenyl)ethynyl)quinoline], for which the melting point fell in the range of 137 to 138 °C. In addition, in data set [1] (setting [3]), the inhibition at 1 µM was 21.2 ± 11.4% and the inhibition at 10 µM was 63.3 ± 2.3%.
As for `Cn1ncc2ccc(C#Cc3c(F)cccc3F)cc21` [Compound 5k, 6-((2,6-Difluorophenyl)ethynyl)-1-methyl-1H-indazole], the melting point lay in the range of 117 to 119 °C. Moreover, in data set [1] (setting [6]), the inhibition at 1 µM was above 75%. Moreover, in data set [1] (setting [7]), the inhibition at 0.1 µM worked out at 0%. Further, in data set [1] (setting [4]), the inhibition at 1 µM turned out to be 85.9 ± 5.4%. Further, in data set [1] (setting [5]), the inhibition at 10 µM is 98.1 ± 0.4%.
`CN1CCN(c2ccc(C#Cc3c(F)cccc3F)cc2)CC1` [Compound 4c, 1-(4-((2,6-Difluorophenyl)ethynyl)phenyl)-4-methylpiperazine] yielded a melting point of 126 to 128 °C. In data set [1] (setting [8]), the inhibition at 1 µM amounted to 19.9%. In addition, the inhibition at 10 µM in data set [1] (setting [9]) came out at 99.6%.
The molecule `Fc1cccc(F)c1C#Cc1cnc2ccccc2c1Cl` [Compound 5q, 4-Chloro-3-((2,6-difluorophenyl)ethynyl)quinoline] yielded a melting point of 140 to 142 °C. Besides, in data set [1] (setting [7]), the inhibition at 0.1 µM is 0%. The inhibition at 1 µM in data set [1] (setting [4]) was 51.5 ± 20.4%. Moreover, the inhibition at 10 µM in data set [1] (setting [5]) worked out at 80.4 ± 13.7%.
The molecule `Fc1cccc(F)c1C#Cc1cncc2ccccc12` [Compound 5hh, 4-((2,6-Difluorophenyl)ethynyl)isoquinoline] showed a melting point of 102 to 104 °C. The inhibition at 1 µM in data set [1] (setting [4]) came out at 16.5 ± 2.1%. In addition, the inhibition at 10 µM in data set [1] (setting [5]) was found to be 87.9 ± 1%.
`Fc1cccc(F)c1C#Cc1ccnc2cc(Cl)ccc12` [Compound 5u, 7-Chloro-4-((2,6-difluorophenyl)ethynyl)quinoline] displayed a melting point of 130 to 132 °C. For the same molecule, in data set [1] (setting [3]), the inhibition at 1 µM was found to be 36 ± 0.4% and the inhibition at 10 µM came out at 74.3 ± 0.2%.
`CN(C)c1ccnc2ccc(C#Cc3c(F)cccc3F)cc12` [Compound 5ff, 6-((2,6-Difluorophenyl)ethynyl)-N,N-dimethylquinolin-4-amine] had a melting point of 118 to 120 °C. Also, the inhibition at 1 µM in data set [1] (setting [2]) was above 75%. For the same molecule, in data set [1] (setting [3]), the inhibition at 0.1 µM was determined as 0%, the inhibition at 1 µM was determined as 81.3 ± 1.4% and the inhibition at 10 µM was 95.5 ± 2%.
With `Fc1cccc(F)c1C#Cc1ccc2cnccc2c1` [Compound 5jj, 6-((2,6-difluorophenyl)ethynyl)isoquinoline], the melting point lay in the range of 97 to 99 °C. Besides, the inhibition at 1 µM in data set [1] (setting [4]) worked out at 11.6 ± 21.3%. Also, the inhibition at 10 µM in data set [1] (setting [5]) stood at 82.4 ± 10.2%.
In turn, `Nc1ccnc2ccc(C#Cc3c(F)cccc3F)cc12` [Compound 5cc, 6-((2,6-Difluorophenyl)ethynyl)quinolin-4-amine] came in with a melting point of 220 to 222 °C. Further, in data set [1] (setting [7]), the inhibition at 0.1 µM stood at 0%. Also, the inhibition at 1 µM in data set [1] (setting [4]) was found to be 66.2 ± 3.1%. Besides, the inhibition at 10 µM in data set [1] (setting [5]) is 93.9 ± 0.4%.
With `Fc1cccc(F)c1C#Cc1ccc(N2CCOCC2)cc1` [Compound 4b, 4-(4-((2,6-Difluorophenyl)ethynyl)phenyl)morpholine], the melting point fell in the range of 144 to 145 °C. For the same molecule, the inhibition at 1 µM in data set [1] (setting [8]) was 13%. Besides, in data set [1] (setting [9]), the inhibition at 10 µM is 32.1%.
For `O=C1CCCCN1c1ccc(C#Cc2c(F)cccc2F)cc1` [Compound 4a, 1-(4-((2,6-Difluorophenyl)ethynyl)phenyl)piperidin-2-one] the same measures were 148 to 150 °C, 6.4% and 68.1%.
With `Fc1cccc(F)c1C#Cc1ccnc2ccccc12` [Compound 5o, 4-((2,6-Difluorophenyl)ethynyl)quinoline], the melting point was 101 to 102 °C. In data set [1] (setting [3]), the inhibition at 1 µM came to 15.4 ± 9.1% and the inhibition at 10 µM came out at 59 ± 7.5%.
`Cc1ccc(C)n1-c1ccc(C#Cc2c(F)cccc2F)cc1` [Compound 4e, 1-(4-((2,6-Difluorophenyl)ethynyl)phenyl)-2,5-dimethyl-1H-pyrrole]: the melting point lay in the range of 124 to 126 °C. The inhibition at 1 µM in data set [1] (setting [8]) amounted to 20.9%. Besides, the inhibition at 10 µM in data set [1] (setting [9]) turned out to be 78.8%.
Molecule `Nc1ccc(C#Cc2c(F)cncc2F)cc1` [Compound 7b, 4-((3,5-Difluoropyridin-4-yl)ethynyl)aniline] yielded a melting point of 156 to 158 °C. Further, the “effects” value in data set [1] (30 nM) is reported as 11.4. Besides, the “effects” value in data set [1] (100 nM) is listed as 30.5. In addition, in data set [1] (300 nM), the “effects” value turned out to be 36.2.

For the origin of these results see patent publication US10449186B2, “Phenylethynyl-substituted benzenes and heterocycles for the treatment of cancer” (UNIVERSITY OF KENTUCKY RESEARCH FOUNDATION, priority 2017, dated 2019).
